Measured values from patent publication US11197862B2, “Methods of preventing toxicity of platinum drugs” (XOMICS BIOPHARMA, INC., priority 2015, dated 2021).

Columns and labels:
[1] = Plasma levels of buflomedil and oxaliplatin in the chronic model; assay type: in vivo, mouse; settings: 15 minutes after the 8th cycle
Description: At baseline (before drug treatment) and at the end of treatment, caudal nerve conduction study (NCS), behavioral tests (Dynamic and Cold Plate), histopathology study were performed. Serum samples were collected at the end of treatment.

[2] = system: Balb/c mice exposed to chronic treatment with Oxaliplatin; assay: Dynamic Plantar Aesthesiometer Test in chronic oxaliplatin neuropathy model; assay type: in vivo, mouse; settings: OXA 3.5 mg/kg iv, 8 cycles ± BFMD 30 mg/kg ip + 15 mg/kg iv
Description: The Dynamic Plantar Aesthesiometer Test was used to determine the alterations in mechanical pain perception and their changes due to pharmacological treatment. Mice were accustomed to the device 3 days before performing the tests after a 1 hour acclimatization period followed by testing. The mechanical nociceptive threshold was assessed using a Dynamic Aesthesiometer Test (model 37450, Ugo Basile Biological Instruments, Comerio. Italy), which generated a linearly increasing mechanical force. At each time point, after the acclimatization period, a servo-controlled mechanical stimulus (a pointed metallic filament, 0.5-mm diameter) was applied to the plantar surface of the hind paw, which exerted a progressively increasing punctuate pressure, reaching up to 15 g within 15 seconds. The pressure evoking a clear voluntary hind-paw withdrawal response was recorded automatically and taken as representing the mechanical nociceptive threshold index. The mechanical threshold was always assessed alternatively on each side every 2 minutes on 3 occasions to yield a mean value. The results represent the maximal pressure (expressed in grams) tolerated by the animals. There was an upper limit cutoff of 30 seconds, after which the mechanical stimulus was automatically terminated.

[3] = system: Balb/c mice exposed to chronic treatment with Oxaliplatin; assay: Morphometry and histopathology of DRG neurons in chronic oxaliplatin neuropathy model; assay type: in vivo, mouse
Description: The investigator was blind to the nerve and DRG conditions for these analyses. Three animals from each group were sacrificed four days after the last oxaliplatin dose. The left sciatic nerves and the L4-L5 DRGs were harvested and processed following previously reported protocols, resin embedded and sectioned for light and electron microscope analysis. For the light microscopy analysis, 1 μm semithin sections were stained with toluidine blue and examined using a Nikon Eclipse E200 light microscope (Nikon, Firenze, Italy). For the electron microscopy analysis, ultrathin sections (80 nm) counterstained with uranyl acetate and lead citrate, were examined with a Philips CM 10 transmission electron microscope (Philips, Eindhoven, Netherlands).
The investigator was blind to the experimental conditions of the tissue for these experiments. One micron thick semithin sections stained with toluidine blue were used for morphometric examination of the DRGs from control (n=3) and oxaliplatin-treated mice (n=3). (Renn et al. Molecular Pain 2011, 7:29). Only the cells where the nucleolus was included in the section plane of 50 μm-spaced out sections were considered to avoid the overlapping of the same cell bodies and they were analyzed with computer-assisted image analysis (ImageJ, NIH) to measure the soma and nucleolus size of at least 300 DRG neurons per mouse.

[4] = system: Balb/c mice exposed to chronic treatment with Oxaliplatin; assay: Caudal nerve conduction study in chronic oxaliplatin neuropathy model; assay type: in vivo, mouse; settings: OXA 3.5 mg/kg iv, 8 cycles ± BFMD 30 mg/kg ip + 15 mg/kg iv
Description: The development of peripheral neuropathy after chronic administration of drugs was assessed by evaluating the nerve conduction velocity (NCV) along caudal and digital nerve using an electromyography apparatus (Myto2 ABN Neuro, Firenze, Italy). Caudal NCV was determined by placing a couple of recording needle electrodes at the base of the tail and a couple of stimulating needle electrodes 3.5 cm distally to the recording points. Similarly, the digital NCV was determined by placing the recording electrodes close to the ankle bone and the stimulating electrodes close to the fourth toe near the digital nerve. The intensity, duration and frequency of stimulation were set up in order to obtain optimal results. All the neurophysiological determinations were performed under standard conditions in a temperature-controlled room (22+/−2° C.) and the animal under isoflurane anesthesia along the whole procedure with continuous monitoring of vital signs.

[5] = cited from earlier work
[6] = system: Balb/c mice exposed to chronic treatment with Oxaliplatin; assay: Cold Plate Test in chronic oxaliplatin neuropathy model; assay type: in vivo, mouse; settings: OXA 3.5 mg/kg iv ± BFMD 30 mg/kg ip + 15 mg/kg iv
Description: Cold Plate Test was used to determine the alterations in cold temperature related pain perception and their changes due to pharmacological treatment. Cold Plate Test was performed by using an apparatus (35100—Hot/Cold Plate. Ugo Basile instruments) composed by a Plexiglas cylinder and a thermostatic plate, able to reach variable temperatures. The mice were placed on the plate set at +4° C., free to move and walk. Two blinded experimenters simultaneously determine the number of pain signs (e.g. jumping, licking, etc.) in a trial of 5 minutes.

With O=C(O)C(=O)O.[NH-][C@@H]1CCCC[C@H]1[NH-].[Pt+2] [Oxaliplatin] the “pharmacokinetic interaction between BFMD and OXA (plasma levels)” value [1] was “unaffected by the presence of BFMD”, the “mechanical allodynia, Dynamic Aesthesiometer Test at the end of treatment” value [2] was “development of mechanical allodynia with a reduction in the latency until withdrawal” and the “area of DRG neuron cell bodies and nucleoli (morphometry)” value ([3]; OXA 3.5 mg/kg iv twice a week for 4 weeks (8 cycles) ± BFMD 30 mg/kg ip + 15 mg/kg iv) was “significant decrease in the area”. For the same molecule, the “DRG histopathology (light and electron microscopy)” value ([3]; OXA 3.5 mg/kg iv, 8 cycles ± BFMD 30 mg/kg ip + 15 mg/kg iv) was “high incidence of multinucleolated cell bodies with eccentric nucleoli”, the “caudal nerve action potential amplitude” value [4] was “significant decrease in caudal amplitude” and the “caudal nerve conduction velocity” value [4] was “significant reduction in caudal nerve conduction velocity vs. control mice”. The “patients with severe PN (Grade 3 or higher)” value ([5]; cumulative doses 510-765 mg/m^2) was “up to 10%”, the “patients developing severe PN” value ([5]; cumulative doses above 1000 mg/m^2, Argriou 2012) was “approximately 50%” and the “Cold Plate Test pain signs after third injection” value ([6]; 3 cycles) was “significant increase in pain signs versus CTRL and all groups of treatment”. The “Cold Plate Test pain signs at the end of treatment (eight injections)” value ([6]; 8 cycles) was “significant increase in pain signs versus CTRL and BFMD”.
